From patent US7608623B2, “Hydroxyamidine and hydroxyguanidine compounds as urokinase inhibitors” (Wilex AG, priority 2003, dated 2009)

Tests used:
[1] = test system: BN-472 breast cancer; test: Breast cancer model BN-472, tumor growth and metastasis in the rat (WX-683); type: in vivo; settings: BN-472 rat
Description: BN-472 breast cancer fragments of approximately 20 mm in diameter were taken from a female donor animal. The tumor was excised, separated from the adhering connective tissue, rinsed with saline, and resuspended in HAM-F12 cell culture medium (Invitrogen BV, Breda, Netherlands), supplemented with 10% fetal calf serum (Hi Clone, Greiner BV, Alphen a/d Rijn, Netherlands). The tumor cortex was sliced into cubes of about 2 mm side length and implanted orthotopically under the mammary fat pad of the 4th right nipple of 7 to 9-weeks old recipient female BN rats. Of the grafted tumors, over 95% became palpable within 3 days, and metastasis to the lungs were detected within 2 to 4 weeks.
Shortly before starting the WX-683 treatment on day 3 after tumor transplantation, all rats were individually weighed and the size of the individual tumor measured as the product of the two largest perpendicular diameters. They were then assorted into groups consisting of 18 rats. The rats were pre-selected such that all treatment groups had similar average body weights and tumor size distributions at the start of the treatment. Control rats received 800 μl vehicle (0.01 N HCl) p.o. WX-683 was dissolved in vehicle at the appropriate concentrations and administered in a volume of 800 μl at dosages of 0.3 and 3 mg/kg by oral gavage once a day. The duration of WX-683 treatment ranged from 24 to 25 days, depending whether the tumor size exceeded the maximum tolerable burden. At the end of the treatment period, the rats were sacrificed, their tumors harvested, separated from the adhering connective tissue and the total tumor weight of every rat was determined. To assess the number of lung metastases, the lungs were fixed in Bouin's solution for at least 24 h. Subsequently the number of lung metastases were determined by counting the yellowish-white macroscopic foci on the lung surface (FIG. 7). This study was approved by the Independent Institutional Animal Care and Use Committee (DEC-Consult), Rotterdam, Netherlands, permit no: Erasmus MC OZP 136-03-01, issued on 01.03.2003.

[2] = test system: BN472 breast cancer; test: Breast cancer model BN472, tumor growth and metastasizing in rats (WX-671); settings: WX-UK1 i.p. 1 mg/kg daily, 30 days, BN472 rat mammary tumor model
[3] = test system: CA20948 rat pancreatic tumor; test: Pancreatic adenocarcinoma model CA20948; settings: WX-UK1 0.3 mg/kg intraperitoneal, 3 weeks, vehicle 30.7%
[4] = Solubility of WX-671 hydrogen sulfate in water; type: physicochemical; settings: 25° C., calculated for the base
Description: The purity was ≧98% (area % after HPLC).

[5] = Stability of WX-671 hydrogen sulfate (stirring in water/acetone; storage as solid); type: physicochemical
Method: 5 g of hydrogen sulfate were stirred in 25 ml of water/acetone (80/20) for 7 days, filtered and dried at room temperature for 60 h. […] After stirring, no increase in the content of organic contaminations was found (determination by HPLC).
After storage as a solid substance at 90° C. for 1 week, <1.5% organic contaminations were found (determination by HPLC).

CCOC(=O)N1CCN(C(=O)[C@H](Cc2cccc(NC(=N)NO)c2)NS(=O)(=O)c2c(C(C)C)cc(C(C)C)cc2C(C)C)CC1 [WX-683, N-α-(2,4,6-triisopropylphenylsulfonyl)-3-hydroxyguanidino-(L)-phenylalanine-4-ethoxycarbonylpiperazide]
reduction of median number of lung metastases ([1]; oral 0.3 mg/kg/day): 18% | reduction of median number of lung metastases ([1]; oral 3 mg/kg/day): 54% | reduction of median primary tumor weight ([1]; oral, highest dosage used (3 mg/kg/day)): 38%

CCOC(=O)N1CCN(C(=O)[C@H](Cc2cccc(C(=N)N)c2)NS(=O)(=O)c2c(C(C)C)cc(C(C)C)cc2C(C)C)CC1.Cl [WX-UK1]
reduction of average tumor weights at the end of the treatment compared to the control [2]: approx. 5% | percentage large mets (>2 mm liver lesions of total liver lesions) [3]: 13.4%

CCOC(=O)N1CCN(C(=O)[C@H](Cc2cccc(/C(N)=N\O)c2)NS(=O)(=O)c2c(C(C)C)cc(C(C)C)cc2C(C)C)CC1.O=S(=O)(O)O [WX-671 hydrogen sulfate]
solubility in water [4]: 1172.5 µg/mL | increase in content of organic contaminations (HPLC) ([5]; after stirring in water/acetone (80/20) for 7 days): no increase | stability of the salt to dissociation (stoichiometry) ([5]; stirred in water/acetone (80/20) for 7 days): stable to dissociation | organic contaminations (HPLC) ([5]; storage as solid at 90° C. for 1 week): < 1.5%
